{"source": "paper PMC9142968", "about": "“Nitro-Group-Containing Thiopeptide Derivatives as Promising Agents to Target Clostridioides difficile” (Pharmaceuticals, 2022)", "key": {"[1]": {"assay": "Plasma stability", "type": "in vitro ADME", "conditions": "human plasma, 30 min; read-out: PS % Remaining (30 min)", "method": "No significant metabolic liabilities were noted. Incubation of AJ-024 for 30 min with human liver microsomes and with human plasma proteins returned 63.8% and 95.9% of unchanged compound, respectively."}, "[2]": {"tested_on": "A. baumannii", "assay": "MIC against Gram-positive/Gram-negative panel", "type": "cell-based", "conditions": "Acinetobacter baumannii, ATCC17904"}, "[3]": {"tested_on": "E. faecalis", "assay": "MIC against Gram-positive/Gram-negative panel", "type": "cell-based", "conditions": "Enterococcus faecalis"}, "[4]": {"tested_on": "E. coli", "assay": "MIC against Gram-positive/Gram-negative panel", "type": "cell-based", "conditions": "Escherichia coli, ATCC25922"}, "[5]": {"tested_on": "E. faecium", "assay": "MIC against Gram-positive/Gram-negative panel", "type": "cell-based", "conditions": "Enterococcus faecium"}, "[6]": {"tested_on": "P. aeruginosa", "assay": "MIC against Gram-positive/Gram-negative panel", "type": "cell-based", "conditions": "Pseudomonas aeruginosa, ATCC27853"}, "[7]": {"tested_on": "K. pneumoniae", "assay": "MIC against Gram-positive/Gram-negative panel", "type": "cell-based", "conditions": "Klebsiella pneumoniae, ATCC10031"}, "[8]": {"tested_on": "S. aureus", "assay": "MIC against Gram-positive/Gram-negative panel", "type": "cell-based", "conditions": "Staphylococcus aureus"}, "[9]": {"tested_on": "C. difficile ribotype 027", "assay": "Mouse IBD-C. difficile comorbidity infection model", "type": "in vivo", "conditions": "mice, DSS-induced IBD + C. difficile ribotype 027, 30 mg/kg once daily oral gavage, observed period of 15 days", "method": "C. difficile ribotype 027 was grown on blood agar plate and incubated for two days at 37 ℃ in an anaerobic chamber and sub-cultured on 70:30 sporulation medium to facilitate the sporulation of C. difficile ribotype 027. Briefly, the sporulation medium consists of 70% SMC (Bacto peptone 90 g, protease peptone 5 g, NH4SO4 1 g, tris base 1.5 g, agar 15 g per liter) and 30% BHIS (BHI agar with 0.5% yeast extract) agar. For inoculation, bacterial colonies were suspended in 0.9% saline solution and further diluted with saline solutions to adjust OD (Optical Density) 1.0 at 1/10 of original saline solutions. Groups of five male C57BL/6J mice were injected orally with a single 0.5 mL dose of the bacterial suspension.\nAll animal experiments were conducted in accordance with the ethical guidelines of the Ethics Review Committee for Animal Experimentation at Handong Global University (Republic of Korea, protocol #HGU-20211214-20). C57BL/6J male (4-week-old male weighing 20 to 22 g, Daehan Bio Link Co., Ltd., Eumseong, Korea) 5 mouse per group was used in C. difficile infection model. Mice were maintained in animal chambers kept at 23 ± 2 ℃ with 55% ± 20% relative humidity. An amount of 2% dextran sodium sulfate (DSS, MP biomedical, Irvine, CA, USA) was inoculated by drinking water for 5 days to cause colitis in mice. […]"}, "[10]": {"tested_on": "C. difficile", "assay": "MIC by agar dilution, representative C. difficile strains", "type": "cell-based", "conditions": "Clostridioides difficile"}, "[11]": {"tested_on": "C. difficile", "conditions": "treatment of CDI; background statement of the introduction; cited from earlier work"}, "[12]": {"tested_on": "C. difficile clinical isolates", "assay": "MIC by agar dilution, classified C. difficile clinical isolates (South Korea)", "type": "cell-based, Clostridioides difficile"}, "[13]": {"tested_on": "C. difficile ribotype 027", "assay": "Time-kill assay", "type": "cell-based, Clostridioides difficile", "conditions": "C. difficile ribotype 027, at 1×, 2× and 4× MIC; bactericidal = ≥3 log10 CFU/mL reduction vs starting inoculum", "method": "The time-kill studies were performed by the CLSI method. […] Vancomycin was diluted in distilled water and AJ-024 was diluted in 1% (v/v) DMSO. […] Samples were removed at 0, 3, 6, and 24 h post inoculation, and serial 10-fold dilutions were performed. The number of viable cells were determined on BHI agar containing 0.5% yeast extract and 5% defibrinated sheep blood after 24 h of incubation. The plates were incubated at 37 ℃ in an anaerobic chamber. Antimicrobials were considered bactericidal at the lowest concentration that reduced the original inoculum by 3 log 10 CFU/mL at each of the time periods and bacteriostatic if the inoculum was reduced by 0 to 3 log 10 CFU/mL."}, "[14]": {"assay": "in vitro", "conditions": "human, plasma"}, "[15]": {"target": "CYP2C19 (Homo sapiens, UniProt P33261)", "sequence (P33261 whole entry)": "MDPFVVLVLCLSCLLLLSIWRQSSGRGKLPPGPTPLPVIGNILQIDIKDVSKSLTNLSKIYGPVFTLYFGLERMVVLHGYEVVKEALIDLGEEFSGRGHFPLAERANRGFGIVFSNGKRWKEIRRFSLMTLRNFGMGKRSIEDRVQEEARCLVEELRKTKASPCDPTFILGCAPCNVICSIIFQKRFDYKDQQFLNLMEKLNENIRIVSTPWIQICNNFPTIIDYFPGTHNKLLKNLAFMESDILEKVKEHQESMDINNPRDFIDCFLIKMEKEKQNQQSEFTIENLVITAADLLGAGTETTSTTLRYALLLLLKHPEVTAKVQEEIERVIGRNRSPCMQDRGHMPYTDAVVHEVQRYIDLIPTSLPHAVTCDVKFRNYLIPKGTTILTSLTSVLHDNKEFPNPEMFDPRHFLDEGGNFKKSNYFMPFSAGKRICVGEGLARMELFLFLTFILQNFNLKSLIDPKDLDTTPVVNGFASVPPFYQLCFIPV", "assay": "Inhibition of CYP enzyme activity (S-mephenytoin probe)", "conditions": "test compound 10 uM; activity expressed as percentage of control"}, "[16]": {"conditions": "A. baumannii ATCC 17904, read-out: MIC"}, "[17]": {"conditions": "ATCC29212, E. faecalis ATCC 29212, read-out: MIC"}, "[18]": {"conditions": "E. faecalis clinical isolate, read-out: MIC"}, "[19]": {"conditions": "E. coli ATCC 25922, read-out: MIC"}, "[20]": {"conditions": "ATCC19434, E. faecium ATCC 19434, read-out: MIC"}, "[21]": {"conditions": "E. faecium clinical isolate, read-out: MIC"}, "[22]": {"conditions": "P. aeruginosa ATCC 27853, read-out: MIC"}, "[23]": {"conditions": "K. pneumoniae ATCC 10031, read-out: MIC"}, "[24]": {"conditions": "ATCC25923, S. aureus ATCC 25923, read-out: MIC"}, "[25]": {"conditions": "ATCC43300, S. aureus ATCC 43300, read-out: MIC"}, "[26]": {"conditions": "S. aureus clinical isolate, read-out: MIC"}}, "note": "Read-outs that look alike come from different tables or passages of the source.", "data": [{"smiles": "CCN(CC)CCOC(=O)c1ccc(N)cc1", "note": "[Procaine]", "values": [{"measurement": "remaining at 0.5 h", "setting": "[1]", "value": 1.4, "unit": "%"}]}, {"smiles": "CC=C(NC(=O)c1csc(-c2csc(-c3ccc4c(n3)-c3csc(n3)C(C(C)O)NC(=O)c3csc(n3)C(C(C)C)NC(=O)c3csc(n3)C(=CC)NC(=O)C(C(C)O)NC(=O)c3csc-4n3)n2)n1)C(=O)NCCn1c([N+](=O)[O-])cnc1C", "note": "(centres unmarked) [AJ-024]", "values": [{"measurement": "MIC", "setting": "[2]; [16]", "value": "> 32", "unit": "µg/mL"}, {"measurement": "MIC", "setting": "[3]; [17]", "value": 0.25, "unit": "µg/mL"}, {"measurement": "MIC", "setting": "[3]; [18]", "value": 0.25, "unit": "µg/mL"}, {"measurement": "MIC", "setting": "[4]; [19]", "value": "> 32", "unit": "µg/mL"}, {"measurement": "MIC", "setting": "[5]; [20]", "value": 0.25, "unit": "µg/mL"}, {"measurement": "MIC", "setting": "[5]; [21]", "value": 0.5, "unit": "µg/mL"}, {"measurement": "MIC", "setting": "[6]; [22]", "value": "> 32", "unit": "µg/mL"}, {"measurement": "MIC", "setting": "[7]; [23]", "value": "> 32", "unit": "µg/mL"}, {"measurement": "MIC", "setting": "[8]; [24]", "value": 0.25, "unit": "µg/mL"}, {"measurement": "MIC", "setting": "[8]; [25]", "value": 0.25, "unit": "µg/mL"}, {"measurement": "MIC", "setting": "[8]; [26]", "value": 0.5, "unit": "µg/mL"}]}, {"smiles": "CN[C@H](CC(C)C)C(=O)N[C@H]1C(=O)N[C@@H](CC(N)=O)C(=O)N[C@H]2C(=O)N[C@H]3C(=O)N[C@H](C(=O)N[C@H](C(=O)O)c4cc(O)cc(O)c4-c4cc3ccc4O)[C@H](O)c3ccc(c(Cl)c3)Oc3cc2cc(c3O[C@@H]2O[C@H](CO)[C@@H](O)[C@H](O)[C@H]2O[C@H]2C[C@](C)(N)[C@H](O)[C@H](C)O2)Oc2ccc(cc2Cl)[C@H]1O", "note": "[Vancomycin]", "values": [{"measurement": "MIC", "setting": "[2]", "value": "> 32", "unit": "µg/mL"}, {"measurement": "MIC", "setting": "[3]", "value": "> 32", "unit": "µg/mL"}, {"measurement": "MIC", "setting": "[3]; ATCC29212", "value": 0.5, "unit": "µg/mL"}, {"measurement": "MIC", "setting": "[4]", "value": "> 32", "unit": "µg/mL"}, {"measurement": "Survival rate", "setting": "[9]", "value": 80, "unit": "%"}, {"measurement": "MIC", "setting": "[10]; ATCC9689", "value": 1, "unit": "µg/mL"}, {"measurement": "MIC", "setting": "[10]; ATCC17858", "value": 1, "unit": "µg/mL"}, {"measurement": "MIC", "setting": "[10]; ATCC43255", "value": 1, "unit": "µg/mL"}, {"measurement": "MIC", "setting": "[10]; ATCC51695", "value": 1, "unit": "µg/mL"}, {"measurement": "MIC", "setting": "[10]; ATCCBAA1871", "value": 1, "unit": "µg/mL"}, {"measurement": "MIC", "setting": "[5]", "value": "> 32", "unit": "µg/mL"}, {"measurement": "MIC", "setting": "[5]; ATCC19434", "value": 1, "unit": "µg/mL"}, {"measurement": "MIC", "setting": "[6]", "value": "> 32", "unit": "µg/mL"}, {"measurement": "Rate of relapse", "setting": "[11]", "value": "25% to 30%"}, {"measurement": "MIC", "setting": "[7]", "value": "> 32", "unit": "µg/mL"}, {"measurement": "MIC range", "setting": "[12]", "value": "0.5 to 2", "unit": "µg/mL"}, {"measurement": "MIC50", "setting": "[12]; Clostridioides difficile", "value": 1, "unit": "µg/mL"}, {"measurement": "Killing activity (bactericidal / bacteriostatic)", "setting": "[13]", "value": "bacteriostatic"}, {"measurement": "MIC", "setting": "[8]", "value": "> 32", "unit": "µg/mL"}, {"measurement": "MIC", "setting": "[8]; ATCC25923", "value": 0.5, "unit": "µg/mL"}, {"measurement": "MIC", "setting": "[8]; ATCC43300", "value": 0.5, "unit": "µg/mL"}]}, {"smiles": "CC(=O)NC[C@H]1CN(c2ccc(N3CCOCC3)c(F)c2)C(=O)O1", "note": "[LIZ, Linezolid]", "values": [{"measurement": "MIC", "setting": "[2]; [16]", "value": "> 32", "unit": "µg/mL"}, {"measurement": "MIC", "setting": "[3]; [17]", "value": 2, "unit": "µg/mL"}, {"measurement": "MIC", "setting": "[3]; [18]", "value": 4, "unit": "µg/mL"}, {"measurement": "MIC", "setting": "[4]; [19]", "value": "> 32", "unit": "µg/mL"}, {"measurement": "MIC", "setting": "[5]; [20]", "value": 2, "unit": "µg/mL"}, {"measurement": "MIC", "setting": "[5]; [21]", "value": 2, "unit": "µg/mL"}, {"measurement": "MIC", "setting": "[6]; [22]", "value": "> 32", "unit": "µg/mL"}, {"measurement": "MIC", "setting": "[7]; [23]", "value": "> 32", "unit": "µg/mL"}, {"measurement": "MIC", "setting": "[8]; [24]", "value": 2, "unit": "µg/mL"}, {"measurement": "MIC", "setting": "[8]; [25]", "value": 2, "unit": "µg/mL"}, {"measurement": "MIC", "setting": "[8]; [26]", "value": 1, "unit": "µg/mL"}]}, {"smiles": "C[C@@H]1C[C@H]2[C@@H]3CCC4=CC(=O)C=C[C@]4(C)[C@@]3(F)[C@@H](O)C[C@]2(C)[C@@]1(O)C(=O)CO", "note": "[Dexamethasone, reference compound]", "values": [{"measurement": "fraction unbound at 4 h, 10 μM", "setting": "[14]", "value": 0.212}]}, {"smiles": "CC(=O)N1CCN(c2ccc(OCC3COC(Cn4ccnc4)(c4ccc(Cl)cc4Cl)O3)cc2)CC1", "note": "(centres unmarked) [Ketoconazole, reference compound]", "values": [{"measurement": "CYP Inhibition 2C19", "setting": "[15]", "value": 97.6}]}, {"smiles": "CCOC(=O)[C@H](CCc1ccccc1)N[C@@H](C)C(=O)N1CCC[C@H]1C(=O)O", "note": "[Enalapril]", "values": [{"measurement": "remaining at 0.5 h", "setting": "[1]", "value": 95.2, "unit": "%"}]}]}
